From the NIST ThermoML archive (doi:10.1021/je060271a)
Numbers after ± are expanded uncertainties.

Conditions: 283.15 K, Liquid, Vibrating tube method

CCCCC(=O)OCC(COC(=O)CCCC)(COC(=O)CCCC)COC(=O)CCCC [pentaerythritol tetrapentanoate]
Conditions | mass density [kg/m3]
2596 kPa | 1028.7 ± 1.2
2607.6 kPa | 1028.6 ± 1.2
2619.2 kPa | 1028.8 ± 1.2
2631.2 kPa | 1028.6 ± 1.2
2645.8 kPa | 1028.6 ± 1.2
2657.4 kPa | 1028.6 ± 1.2
2670 kPa | 1028.7 ± 1.2
2684.8 kPa | 1028.6 ± 1.2
2697.1 kPa | 1028.5 ± 1.2
2708.7 kPa | 1028.6 ± 1.2
2721.4 kPa | 1028.6 ± 1.2
2736.6 kPa | 1028.8 ± 1.2
2749.1 kPa | 1028.6 ± 1.2
2762 kPa | 1028.6 ± 1.2
2777.4 kPa | 1028.7 ± 1.2
2790.4 kPa | 1028.7 ± 1.2
2803.7 kPa | 1028.6 ± 1.2
2819.5 kPa | 1028.6 ± 1.2
2833.1 kPa | 1028.7 ± 1.2
2846.4 kPa | 1028.7 ± 1.2
2860.3 kPa | 1028.7 ± 1.2
2874 kPa | 1028.8 ± 1.2
2891 kPa | 1028.7 ± 1.2
2904.7 kPa | 1028.6 ± 1.2
2918.7 kPa | 1028.8 ± 1.2
2935.2 kPa | 1028.8 ± 1.2
2949.4 kPa | 1028.8 ± 1.2
2963.8 kPa | 1028.8 ± 1.2
2978.5 kPa | 1028.7 ± 1.2
2995.7 kPa | 1028.9 ± 1.2
3010.3 kPa | 1028.8 ± 1.2
3025.5 kPa | 1028.8 ± 1.2
3042.9 kPa | 1028.9 ± 1.2
3057.8 kPa | 1029 ± 1.2
3073.4 kPa | 1028.9 ± 1.2
3091.7 kPa | 1028.8 ± 1.2
3107 kPa | 1028.9 ± 1.2
3122.3 kPa | 1028.9 ± 1.2
3138 kPa | 1029 ± 1.2
3156.6 kPa | 1029 ± 1.2
3172.7 kPa | 1028.9 ± 1.2
3191.8 kPa | 1028.9 ± 1.2
3207.9 kPa | 1029 ± 1.2
3224.7 kPa | 1028.9 ± 1.2
3241.2 kPa | 1029 ± 1.2
3261.6 kPa | 1029 ± 1.2
3276.9 kPa | 1028.9 ± 1.2
3297 kPa | 1028.9 ± 1.2
3314 kPa | 1029 ± 1.2
3334.8 kPa | 1029.1 ± 1.2
3352.3 kPa | 1029 ± 1.2
3369.8 kPa | 1029 ± 1.2
3387.8 kPa | 1029 ± 1.2
3405.8 kPa | 1029.1 ± 1.2
3427.2 kPa | 1029.1 ± 1.2
3444.8 kPa | 1029.1 ± 1.2
3463.4 kPa | 1029.2 ± 1.2
3485.6 kPa | 1029 ± 1.2
3505 kPa | 1029.1 ± 1.2
3523.9 kPa | 1029.1 ± 1.2
3543.1 kPa | 1029.2 ± 1.2
3562.2 kPa | 1029.1 ± 1.2
3585.6 kPa | 1029.1 ± 1.2
3605.1 kPa | 1029.2 ± 1.2
3625.3 kPa | 1029.2 ± 1.2
3645 kPa | 1029.4 ± 1.2
3665.5 kPa | 1029.2 ± 1.2
3689.4 kPa | 1029.2 ± 1.2
3709.5 kPa | 1029.3 ± 1.2
3729.7 kPa | 1029.2 ± 1.2
3754.5 kPa | 1029.2 ± 1.2
3775.8 kPa | 1029.2 ± 1.2
3797 kPa | 1029.3 ± 1.2
3821.9 kPa | 1029.4 ± 1.2
3843.6 kPa | 1029.4 ± 1.2
3865.6 kPa | 1029.3 ± 1.2
3887.1 kPa | 1029.4 ± 1.2
3913.4 kPa | 1029.2 ± 1.2
3935.4 kPa | 1029.2 ± 1.2
3957.4 kPa | 1029.4 ± 1.2
3984.4 kPa | 1029.5 ± 1.2
4007.1 kPa | 1029.3 ± 1.2
4030 kPa | 1029.5 ± 1.2
4053.3 kPa | 1029.5 ± 1.2
4081.1 kPa | 1029.5 ± 1.2
4104.4 kPa | 1029.6 ± 1.2
4128.5 kPa | 1029.5 ± 1.2
4157.3 kPa | 1029.6 ± 1.2
4181.3 kPa | 1029.5 ± 1.2
4205.4 kPa | 1029.5 ± 1.2
4234.9 kPa | 1029.5 ± 1.2
4260 kPa | 1029.6 ± 1.2
4284.7 kPa | 1029.5 ± 1.2
4314.9 kPa | 1029.7 ± 1.2
4340 kPa | 1029.7 ± 1.2
4366.5 kPa | 1029.7 ± 1.2
4393.7 kPa | 1029.7 ± 1.2
4426 kPa | 1029.7 ± 1.2
4453.1 kPa | 1029.7 ± 1.2
4480.4 kPa | 1029.8 ± 1.2
4507.9 kPa | 1029.8 ± 1.2
4542.4 kPa | 1029.9 ± 1.2
4572 kPa | 1029.7 ± 1.2
4602.1 kPa | 1029.7 ± 1.2
4632.8 kPa | 1029.7 ± 1.2
4669.8 kPa | 1029.8 ± 1.2
4701.7 kPa | 1030 ± 1.2
4733 kPa | 1029.9 ± 1.2
4763.3 kPa | 1029.9 ± 1.2
4792.9 kPa | 1029.8 ± 1.2
4797.4 kPa | 1029.9 ± 1.2
4798.1 kPa | 1029.9 ± 1.2
4800.3 kPa | 1029.9 ± 1.2
4801 kPa | 1029.8 ± 1.2
4803.1 kPa | 1030 ± 1.2
4805.2 kPa | 1029.9 ± 1.2
4805.4 kPa | 1030 ± 1.2
4807.6 kPa | 1029.9 ± 1.2
4808.8 kPa | 1029.9 ± 1.2
4810.7 kPa | 1029.9 ± 1.2
4811.8 kPa | 1029.9 ± 1.2
4812.5 kPa | 1029.9 ± 1.2
4813.1 kPa | 1029.9 ± 1.2
4813.3 kPa | 1030 ± 1.2
4813.7 kPa | 1029.9 ± 1.2
4814 kPa | 1030 ± 1.2
4814.2 kPa | 1029.9 ± 1.2
4814.4 kPa | 1029.9 ± 1.2
4819 kPa | 1030 ± 1.2
4836.2 kPa | 1029.9 ± 1.2
4855.7 kPa | 1029.9 ± 1.2
4877.5 kPa | 1029.9 ± 1.2
4899 kPa | 1030 ± 1.2
4924.1 kPa | 1030 ± 1.2
4945.9 kPa | 1029.9 ± 1.2
4969.3 kPa | 1030 ± 1.2
4990.9 kPa | 1030 ± 1.2
5013.2 kPa | 1030 ± 1.2
5040.4 kPa | 1030 ± 1.2
5062.7 kPa | 1030 ± 1.2
5085.9 kPa | 1030 ± 1.2
5113.1 kPa | 1030.1 ± 1.2
5136.1 kPa | 1030.1 ± 1.2
5159.8 kPa | 1030 ± 1.2
5188.5 kPa | 1030.1 ± 1.2
5213.2 kPa | 1030.2 ± 1.2
5238.3 kPa | 1030.2 ± 1.2
5263.4 kPa | 1030 ± 1.2
5289.6 kPa | 1030.3 ± 1.2
5314.9 kPa | 1030.1 ± 1.2
5344.8 kPa | 1030.1 ± 1.2
5370.4 kPa | 1030.2 ± 1.2
5395.8 kPa | 1030.2 ± 1.2
5426.8 kPa | 1030.1 ± 1.2
5453.3 kPa | 1030.3 ± 1.2
5479.6 kPa | 1030.3 ± 1.2
5512.1 kPa | 1030.3 ± 1.2
5539.8 kPa | 1030.4 ± 1.2
5567.4 kPa | 1030.3 ± 1.2
5595.3 kPa | 1030.4 ± 1.2
